{"source": "paper PMC11595864", "about": "“Design, Synthesis, and Evaluation of Novel Thiazole-Containing Algicides Inspired by Bacillamide A” (Marine Drugs, 2024)", "key": {"S. costatum [1]": {"test_system": "S. costatum", "experiment": "Algicidal activity assay, EC50", "format": "cell-based, Skeletonema costatum", "conditions": "for EC50: Skeletonema costatum, read-out: EC50 S. costatum", "description": "(§1) P. minimum, A. pacificum, and S. costatum were purchased from Guangyu Biological Technology Co., Ltd. (Shanghai, China). The algae strain was cultured in F/2 medium ((12 h light: 12 h dark cycle), 20 ± 1 °C, 70 μmol m^−2 s^−1). Purchased algae were transferred to sterile conical flasks for culture; after the algae proliferation was stabilized, the expanded culture was next carried out following standard conditions.\n(§2) Copper sulfate and Diuron were used as the positive controls. EC50 values were calculated according to the equation of the quantity–effect relationship in Equation (2) using the Hill model of Graph Pad Prism software (8.0.2). (2) Y=Bottom+(Top-Bottom)/1+10^(Log EC50-X)×Hill Slope\n(§3) The X and Y values represent the concentration (mg/L) and response values of the control and experimental groups, respectively. The Top, Bottom, and Hill Slope represent the maximum response, minimum response, and the curve slope, respectively. The EC50 represents half of the maximum effective concentration."}, "A. pacificum [2]": {"test_system": "A. pacificum", "experiment": "Algicidal activity assay, EC50", "format": "cell-based, Alexandrium pacificum", "conditions": "Mean ± SD, n = 3; for EC50: Alexandrium pacificum", "description": "as §1, §2, §3"}, "P. minimum [3]": {"test_system": "P. minimum", "experiment": "Algicidal activity assay, EC50", "format": "cell-based, Prorocentrum minimum", "conditions": "for EC50: Prorocentrum minimum, read-out: EC50 P. minimum", "description": "as §1, §2, §3"}, "P. minimum [4]": {"test_system": "P. minimum", "experiment": "Growth-inhibition rate measurement at 50 mg/L, 24 h", "format": "cell-based, Prorocentrum minimum", "conditions": "for inhibition at 50 µg/mL: Prorocentrum minimum, read-out: inhibition rate against P. minimum", "description": "as §1\n(§4) The stock solutions of bacillamide A and different BDs were prepared in dimethyl sulfoxide (DMSO) with the requisition amount. […] The controls received the same volume of DMSO. The inhibitory activities of bacillamide A, different BDs, and positive controls were screened by 96 well microtiter plates at different concentrations. Inhibition ratios (IRs) of cupric sulfate (50 mg/L, positive control), bacillamide A (50 mg/L), and BDs (50 mg/L) were calculated on algae using Equation (1). (1) IR=Cc0-Cex/Cc0×100%\n(§5) The CC0 and Cex, respectively, represent the algal densities of the control and experimental groups."}, "A. pacificum [5]": {"test_system": "A. pacificum", "experiment": "Growth-inhibition rate measurement at 50 mg/L, 24 h", "format": "cell-based, Alexandrium pacificum", "conditions": "for inhibition at 50 µg/mL: Alexandrium pacificum, read-out: inhibition rate against A. pacificum", "description": "as §1, §4, §5"}, "zebrafish": {"test_system": "zebrafish", "experiment": "Zebrafish acute toxicity assay", "format": "in vivo", "conditions": "zebrafish", "description": "Zebrafish acute toxicity of bacillamide A and synthesized BDs were evaluated at 0.1 mg/L, 1 mg/L, and 10 mg/L, respectively. Diuron and CuSO4 were used as positive controls. The commercial zebrafish (body length > 3.0 cm) were domesticated in aerated tap water for 24 h, fed once daily for seven consecutive days, and stopped being fed before the experiment.\n4. Acute toxicity table S1.\nCompound Concentration Survival percent Acute\naAccording to the Guide for Environmental Safety Assessment of Chemical Pesticides\n4 groups and treated with different compounds for 96 h."}, "P. minimum [6]": {"test_system": "P. minimum", "experiment": "ROS level (DCFH-DA fluorescent probe assay)", "format": "cell-based, Prorocentrum minimum", "conditions": "10 mg/L, 72 h", "description": "(§6) P. minimum, S. costatum, and A. pacificum cells were cultured in F/2 medium. All flasks were cultivated under 12 h of light: 12 h of dark and 70 μmol m^−2 s^−1 at 20 ± 1 °C. […] Finally, the algal cells were collected and diluted in 6 mL of phosphate buffer (pH = 7.8). A small amount of quartz sand was added into the algal cells under ice bath. The obtained homogenate was next poured into a centrifuge tube and centrifuged at 5000 r/min for 25 min at 4 °C. The obtained supernatant was placed in the refrigerator at 4 °C for the next step experiment.\n(§7) The reactive oxygen species (ROS) assay kit was purchased from SolarBio Co., Ltd., Beijing, China. The 2′,7′-dichlorodihydrofluorescein diacetate (DCFH-DA) could be oxidized by reactive oxygen or nitrogen species (ROS/RNS) to generate high fluorescent 2′,7′-dichlorofluoroscein (DCF). DCF could be detected by Cyto-FLEX flow cytometry."}, "S. costatum [7]": {"test_system": "S. costatum", "experiment": "ROS level (DCFH-DA fluorescent probe assay)", "format": "cell-based, Skeletonema costatum", "conditions": "10 mg/L, 72 h", "description": "as §6, §7"}}, "note": "Read-outs that look alike come from different tables or passages of the source."}
{"smiles": "O=C(NCCc1ccccc1)c1csc(-c2ccccc2)n1", "note": "[Compound 7c]", "values": [{"measurement": "EC50", "setting": "S. costatum [1]; Mean ± SD, n = 3", "value": "0.24 ± 0.058", "unit": "mg/L"}, {"measurement": "EC50", "setting": "A. pacificum [2]", "value": "0.53 ± 0.32", "unit": "mg/L"}, {"measurement": "EC50", "setting": "P. minimum [3]; Mean ± SD, n = 3", "value": "3.38 ± 0.84", "unit": "mg/L"}, {"measurement": "inhibition at 50 µg/mL", "setting": "P. minimum [4]", "value": 74.7, "unit": "%"}, {"measurement": "inhibition at 50 µg/mL", "setting": "A. pacificum [5]", "value": "70 to 95", "unit": "%"}]}
{"smiles": "CN(C)CCNC(=O)c1csc(-c2ccccc2)n1", "note": "[Compound 7d]", "values": [{"measurement": "EC50", "setting": "S. costatum [1]; Mean ± SD, n = 3", "value": "0.77 ± 0.21", "unit": "mg/L"}, {"measurement": "EC50", "setting": "A. pacificum [2]", "value": "2.02 ± 0.54", "unit": "mg/L"}, {"measurement": "EC50", "setting": "P. minimum [3]; Mean ± SD, n = 3", "value": "3.22 ± 0.39", "unit": "mg/L"}, {"measurement": "inhibition at 50 µg/mL", "setting": "A. pacificum [5]", "value": "70 to 95", "unit": "%"}]}
{"smiles": "O=C(Nc1ccccc1)c1csc(-c2ccccc2)n1", "note": "[Compound 7e]", "values": [{"measurement": "EC50", "setting": "S. costatum [1]; Mean ± SD, n = 3", "value": "1.1 ± 0.31", "unit": "mg/L"}, {"measurement": "EC50", "setting": "A. pacificum [2]", "value": "0.69 ± 0.07", "unit": "mg/L"}, {"measurement": "EC50", "setting": "P. minimum [3]; Mean ± SD, n = 3", "value": "3.23 ± 0.39", "unit": "mg/L"}, {"measurement": "inhibition at 50 µg/mL", "setting": "A. pacificum [5]", "value": "70 to 95", "unit": "%"}]}
{"smiles": "CC(C)(C)OC(=O)NCCNC(=O)c1csc(-c2ccccc2)n1", "note": "[Compound 7f]", "values": [{"measurement": "inhibition rate against P. minimum", "setting": "P. minimum [4]", "value": "lost most of its algicidal activity"}, {"measurement": "inhibition rate against A. pacificum", "setting": "A. pacificum [5]", "value": "lost most of its algicidal activity"}, {"measurement": "melting point", "value": "162 to 163", "unit": "°C"}]}
{"smiles": "NCCNC(=O)c1csc(-c2ccccc2)n1", "note": "[Compound 7g]", "values": [{"measurement": "EC50", "setting": "S. costatum [1]; Mean ± SD, n = 3", "value": "2.28 ± 0.37", "unit": "mg/L"}, {"measurement": "EC50", "setting": "A. pacificum [2]", "value": "3.42 ± 0.13", "unit": "mg/L"}, {"measurement": "EC50", "setting": "P. minimum [3]; Mean ± SD, n = 3", "value": "2.02 ± 0.27", "unit": "mg/L"}, {"measurement": "inhibition at 50 µg/mL", "setting": "P. minimum [4]", "value": 76.9, "unit": "%"}, {"measurement": "melting point", "value": "173 to 174", "unit": "°C"}]}
{"smiles": "O=S(=O)([O-])[O-].[Cu+2]", "note": "[CuSO4, cupric sulfate anhydrous, reference compound]", "values": [{"measurement": "EC50 S. costatum", "setting": "S. costatum [1]; Mean ± SD, n = 3", "value": "3.12 ± 0.21", "unit": "mg/L"}, {"measurement": "EC50 A. pacificum", "setting": "A. pacificum [2]", "value": "2.34 ± 0.06", "unit": "mg/L"}, {"measurement": "EC50 P. minimum", "setting": "P. minimum [3]; Mean ± SD, n = 3", "value": "3.61 ± 0.32", "unit": "mg/L"}, {"measurement": "Survival percent", "setting": "zebrafish; 0.1 mg/L, 0h", "value": 100}, {"measurement": "Survival percent", "setting": "zebrafish; 0.1 mg/L, 24h", "value": 100}, {"measurement": "Survival percent", "setting": "zebrafish; 0.1 mg/L, 48h", "value": 80}, {"measurement": "Survival percent", "setting": "zebrafish; 0.1 mg/L, 72h", "value": 73}, {"measurement": "Survival percent", "setting": "zebrafish; 0.1 mg/L, 96h", "value": 73}, {"measurement": "Survival percent", "setting": "zebrafish; 1 mg/L, 0h", "value": 100}, {"measurement": "Survival percent", "setting": "zebrafish; 1 mg/L, 24h", "value": 50}, {"measurement": "Survival percent", "setting": "zebrafish; 1 mg/L, 48h", "value": 50}, {"measurement": "Survival percent", "setting": "zebrafish; 1 mg/L, 72h", "value": 43}, {"measurement": "Survival percent", "setting": "zebrafish; 1 mg/L, 96h", "value": 43}, {"measurement": "Survival percent", "setting": "zebrafish; 10 mg/L, 0h", "value": 100}, {"measurement": "Survival percent", "setting": "zebrafish; 10 mg/L, 24h", "value": 0}, {"measurement": "Survival percent", "setting": "zebrafish; 10 mg/L, 48h", "value": 0}, {"measurement": "Survival percent", "setting": "zebrafish; 10 mg/L, 72h", "value": 0}, {"measurement": "Survival percent", "setting": "zebrafish; 10 mg/L, 96h", "value": 0}, {"measurement": "increase of ROS levels in P. minimum", "setting": "P. minimum [6]", "value": 9.6, "unit": "fold"}, {"measurement": "increase of ROS levels in S. costatum", "setting": "S. costatum [7]", "value": 7.7, "unit": "fold"}]}
{"smiles": "CN(C)C(=O)Nc1ccc(Cl)c(Cl)c1", "note": "[Diuron, reference compound]", "values": [{"measurement": "EC50", "setting": "S. costatum [1]", "value": "4.32 ± 0.14", "unit": "mg/L"}, {"measurement": "EC50", "setting": "A. pacificum [2]", "value": "5.69 ± 0.46", "unit": "mg/L"}, {"measurement": "EC50", "setting": "P. minimum [3]", "value": "4.72 ± 0.41", "unit": "mg/L"}]}
